Drawing on ChEMBL document CHEMBL4840363, “Genome-Guided Discovery of Highly Oxygenated Aromatic Polyketides, Saccharothrixins D-M, from the Rare Marine Actinomycete Saccharothrix sp. D09” (J Nat Prod, 2021), this text covers IC50 and MIC for 3 compounds.

Assay [1] concerns MCF7. The experiment in a line: Cytotoxicity against human MCF7 cells assessed as reduction in cell viability by MTT assay. It counts as functional, cell-based.
The test system of assay [2] is HCT-116. The experiment in a line: Cytotoxicity against human HCT-116 cells assessed as reduction in cell viability by MTT assay. It counts as functional, cell-based. A general note: Tetrazolium assays rely on reduction of a dye to a coloured formazan, in cell work by metabolically active cells.
The test system of assay [3] is Helicobacter pylori. The experiment in a line: Antibacterial activity against Helicobacter pyroli 159 assessed as inhibition of bacterial growth incubated for 48 hrs. It counts as functional.
Assay [4] has as its system HepG2. Description: Cytotoxicity against human HepG2 cells assessed as reduction in cell viability by MTT assay. It counts as functional, cell-based.
The test system of assay [5] is A549. Description: Cytotoxicity against human A549 cells assessed as reduction in cell viability by MTT assay. It counts as functional, cell-based.
Assay [6] has as its system RAW264.7. The experiment in a line: Antiinflammatory activity against mouse RAW264.7 cells assessed as inhibition of LPS induced NO production preincubated for 30 mins followed by LPS addition measured after 48 hrs by griess reagent based assay. It is filed as functional, cell-based. (Nitrite, measured by Griess reagent, commonly stands in for NO production.)
Assay [7] relates to Helicobacter pylori. The experiment in a line: Antibacterial activity against Helicobacter pyroli G27 assessed as inhibition of bacterial growth incubated for 48 hrs. It is filed as functional.
Assay [8] relates to Staphylococcus aureus. Description: Antibacterial activity against Staphylococcus aureus ATCC25923 assessed as inhibition of bacterial growth incubated for 48 hrs. It is filed as functional.

SMILES strings stand for the structures. ≈ marks a conversion by molar mass, not a printed value.

`COc1cccc2c1[C@H](O)[C@]13C=C[C@]4(O)CC(C)=CC(=O)[C@@H]4[C@]1(O3)[C@H]2O`: the IC50 in assay [1], in assay [2], in assay [4] and in assay [5] was over 20 µM in each case. The MIC (usually the smallest concentration in the dilution series that meets the test's criterion for growth inhibition) in assay [3] came to 32 mg/L (≈ 89.8 µM).
For `COc1cccc2c1[C@H](O)[C@]13C=C[C@]4(O)CC(C)=CC(=O)[C@@H]4[C@]1(O3)C2=O`, the IC50 (commonly the concentration that gives 50% inhibition) in assay [1] was over 20 µM; in assay [2] it was over 20 µM; in assay [4], over 20 µM; in assay [5], over 20 µM; in assay [6] it was 28 µM. Besides, in assay [3], the MIC worked out at 32 mg/L (≈ 90.3 µM).
As to `Cc1cc(O[C@H]2O[C@@H](C)[C@H](O)[C@@H](O)[C@H]2O)c2c3c(ccc2c1)C(=O)c1c(O)cccc1[C@@H]3O`, the MIC in assay [7], in assay [3] and in assay [8] was 16 mg/L (≈ 35.4 µM) throughout. Further, the IC50 in assay [1], in assay [2], in assay [4] and in assay [5] was over 20 µM each time.
